Reference: publication PMC6779870, “Structural analysis of fungal pathogenicity-related casein kinase α subunit, Cka1, in the human fungal pathogen Cryptococcus neoformans” (Scientific Reports, 2019)

Target: T1, cnCka1 (Cryptococcus neoformans CK2α orthologue, Cka1) (Cryptococcus neoformans, UniProt J9VNH4)
T1 construct: gene CNAG_05694; full-length, Met1–Pro338 (His6-TRX fusion in SPR; tag removed for crystal)
Assay: SPR (Biacore […]) and crystal structure at […] Å; also ADP-Glo kinase assay
Format: binding

T1 sequence (J9VNH4 entry or part of it): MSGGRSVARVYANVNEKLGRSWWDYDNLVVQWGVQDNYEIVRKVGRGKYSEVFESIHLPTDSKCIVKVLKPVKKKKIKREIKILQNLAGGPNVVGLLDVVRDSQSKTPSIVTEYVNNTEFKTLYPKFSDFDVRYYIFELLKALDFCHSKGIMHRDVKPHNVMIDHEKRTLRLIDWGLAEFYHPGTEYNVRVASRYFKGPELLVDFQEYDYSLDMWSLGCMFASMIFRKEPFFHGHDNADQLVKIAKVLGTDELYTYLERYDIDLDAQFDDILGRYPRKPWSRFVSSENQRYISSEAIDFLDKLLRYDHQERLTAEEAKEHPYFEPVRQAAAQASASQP

Molecule `O=C(O)c1ccc2c(c1)nc(Nc1cccc(Cl)c1)c1ccncc12` [CX-4945, 5-(3-chlorophenylamino)benzo[c][2,6]naphthyridine-8-carboxylic acid] has a Kd of 60.1 nM.
